Measured values taken from ChEMBL document CHEMBL1201862, “PubChem BioAssay data set” (2004).
Activity calls are given as the source filed them.

Columns and labels:
Vero = Vero cell cytotoxicity, cytotoxicity control for flavivirus capping enzyme inhibitors (AID 588742); type: functional; conditions: Chlorocebus sabaeus
[1] = molecular target: Heat shock protein HSP 90-alpha (Homo sapiens, UniProt P07900); type: functional, organism-based
[2] = molecular target: T1, Microphthalmia-associated transcription factor (Homo sapiens, UniProt O75030); test: TRPM1 promoter luciferase signal decrease, dose response, MITF inhibitor project, cell-based, SK-MEL-5, cherry-picked, set 3 (AID 493073); type: functional
T1 sequence (O75030 whole entry): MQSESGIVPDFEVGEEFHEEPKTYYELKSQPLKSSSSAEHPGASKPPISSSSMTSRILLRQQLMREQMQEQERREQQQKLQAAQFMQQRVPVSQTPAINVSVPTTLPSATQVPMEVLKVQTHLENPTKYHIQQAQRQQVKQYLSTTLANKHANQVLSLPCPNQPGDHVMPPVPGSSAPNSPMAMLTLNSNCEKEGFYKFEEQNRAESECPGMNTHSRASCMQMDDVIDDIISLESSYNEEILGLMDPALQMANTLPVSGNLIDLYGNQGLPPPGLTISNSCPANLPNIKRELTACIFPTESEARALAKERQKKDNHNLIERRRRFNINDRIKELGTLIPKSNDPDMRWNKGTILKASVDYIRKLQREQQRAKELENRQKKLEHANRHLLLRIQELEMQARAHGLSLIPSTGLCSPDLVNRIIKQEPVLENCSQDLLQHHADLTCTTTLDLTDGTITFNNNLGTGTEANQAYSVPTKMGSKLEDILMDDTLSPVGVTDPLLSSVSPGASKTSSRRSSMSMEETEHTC

A-375 = test: MITF: Counter assay: A375 proliferation Measured in Cell-Based System Using Plate Reader - 2084-03_Inhibitor_Dose_DryPowder_Activity. [Related pubchem assays (depositor defined):AID488944]; type: functional; conditions: Homo sapiens
Genome polyprotein = Genome polyprotein (dengue virus type 2, UniProt P29990); test: Dengue-2 NS5 methyltransferase inhibitors, primary screen, biochemical, confirmation dose response (AID 588689); type: functional
Large T antigen = Large T antigen (Simian virus 40, UniProt P03070); type: functional, Betapolyomavirus macacae;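 also: Confirmatory-stage PubChem screen for compounds that inhibit SV40 T antigen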
[3] = molecular target: T2, Serine/threonine-protein phosphatase (Candida dubliniensis (strain CD36 / CBS 7987 / NCPF 3949 / NRRLY-17841) (Yeast), UniProt B9W6M3); test: Fluorescence Cell-Based Secondary Assay to Identify Inhibitors of Calcineurin. [Related pubchem assays (depositor defined):AID1979, AID2007]; type: functional
T2 sequence (B9W6M3 whole entry): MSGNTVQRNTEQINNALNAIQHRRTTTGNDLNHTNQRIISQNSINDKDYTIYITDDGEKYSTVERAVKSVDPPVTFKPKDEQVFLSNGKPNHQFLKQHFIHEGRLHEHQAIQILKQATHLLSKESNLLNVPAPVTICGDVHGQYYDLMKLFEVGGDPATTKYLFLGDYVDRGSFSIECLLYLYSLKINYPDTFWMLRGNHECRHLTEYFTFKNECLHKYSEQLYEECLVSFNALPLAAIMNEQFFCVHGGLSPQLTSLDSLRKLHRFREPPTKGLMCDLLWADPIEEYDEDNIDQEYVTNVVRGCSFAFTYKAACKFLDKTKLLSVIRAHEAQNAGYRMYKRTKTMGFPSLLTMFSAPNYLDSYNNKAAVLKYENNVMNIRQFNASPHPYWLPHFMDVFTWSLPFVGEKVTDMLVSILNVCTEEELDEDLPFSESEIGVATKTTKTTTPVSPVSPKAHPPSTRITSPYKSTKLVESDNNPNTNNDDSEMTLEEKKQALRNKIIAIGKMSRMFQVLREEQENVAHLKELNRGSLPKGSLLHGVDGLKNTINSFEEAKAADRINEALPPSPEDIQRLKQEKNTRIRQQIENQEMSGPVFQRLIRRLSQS

[4] = molecular target: T3, Dual specificity protein phosphatase 3 (Homo sapiens, UniProt P51452); test: VHR1 phosphatase inhibitors, primary screen, biochemical, absorbance, uHTS (AID 1654)
[5] = molecular target: T4, Voltage-gated N-type calcium channel alpha-1B subunit/Amyloid beta A4 precursor protein-binding family A member 1 (Homo sapiens, UniProt Q00975+Q02410); type: protein assay
[6] = molecular target: T3, Dual specificity protein phosphatase 3; test: VHR1 phosphatase inhibitors, biochemical (AID 1878)
[7] = molecular target: T5, Dual specificity protein phosphatase 6 (Rattus norvegicus, UniProt Q64346); test: MKP-3 phosphatase inhibitors, primary screen, biochemical, rat enzyme, in vitro (AID 425)
T5 sequence (Q64346 whole entry): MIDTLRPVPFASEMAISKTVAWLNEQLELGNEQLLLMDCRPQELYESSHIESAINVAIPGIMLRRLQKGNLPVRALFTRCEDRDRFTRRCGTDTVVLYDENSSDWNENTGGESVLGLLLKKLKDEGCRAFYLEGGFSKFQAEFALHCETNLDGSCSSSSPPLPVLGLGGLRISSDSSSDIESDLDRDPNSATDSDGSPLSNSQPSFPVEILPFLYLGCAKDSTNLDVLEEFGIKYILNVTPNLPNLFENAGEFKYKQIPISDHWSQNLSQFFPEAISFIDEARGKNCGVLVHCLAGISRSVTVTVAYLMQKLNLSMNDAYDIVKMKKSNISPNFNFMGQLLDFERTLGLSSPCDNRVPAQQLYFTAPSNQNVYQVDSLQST

[8] = molecular target: T4, Voltage-gated N-type calcium channel alpha-1B subunit/Amyloid beta A4 precursor protein-binding family A member 1; type: protein assay; remark: listed apart in the source
[9] = molecular target: Lysine-specific demethylase 4A (Homo sapiens, UniProt O75164); test: JMJD2A histone demethylase inhibitors, dose response, selectivity assay for GASC-1 inhibitor project, biochemical, DELFIA europium, cherry-picked samples (AID 488840)
Fatty acid synthase [10] = molecular target: T6, Fatty acid synthase (Homo sapiens, UniProt P49327); test: FAS thioesterase domain inhibitors, dose response, biochemical, kinetic fluorescence intensity (AID 624326); type: functional;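 also: rate of fluorescence rise from hydrolysis of a fluorogenic O-methyl fluorescein ester substrate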
[11] = molecular target: T7, Lysine-specific demethylase 4C (Homo sapiens, UniProt Q9H3R0); test: GASC-1 (JMJD2C) histone demethylase inhibitors, dose response, biochemical, DELFIA europium, cherry-picked samples (AID 488835); type: functional
T7 sequence (Q9H3R0 whole entry): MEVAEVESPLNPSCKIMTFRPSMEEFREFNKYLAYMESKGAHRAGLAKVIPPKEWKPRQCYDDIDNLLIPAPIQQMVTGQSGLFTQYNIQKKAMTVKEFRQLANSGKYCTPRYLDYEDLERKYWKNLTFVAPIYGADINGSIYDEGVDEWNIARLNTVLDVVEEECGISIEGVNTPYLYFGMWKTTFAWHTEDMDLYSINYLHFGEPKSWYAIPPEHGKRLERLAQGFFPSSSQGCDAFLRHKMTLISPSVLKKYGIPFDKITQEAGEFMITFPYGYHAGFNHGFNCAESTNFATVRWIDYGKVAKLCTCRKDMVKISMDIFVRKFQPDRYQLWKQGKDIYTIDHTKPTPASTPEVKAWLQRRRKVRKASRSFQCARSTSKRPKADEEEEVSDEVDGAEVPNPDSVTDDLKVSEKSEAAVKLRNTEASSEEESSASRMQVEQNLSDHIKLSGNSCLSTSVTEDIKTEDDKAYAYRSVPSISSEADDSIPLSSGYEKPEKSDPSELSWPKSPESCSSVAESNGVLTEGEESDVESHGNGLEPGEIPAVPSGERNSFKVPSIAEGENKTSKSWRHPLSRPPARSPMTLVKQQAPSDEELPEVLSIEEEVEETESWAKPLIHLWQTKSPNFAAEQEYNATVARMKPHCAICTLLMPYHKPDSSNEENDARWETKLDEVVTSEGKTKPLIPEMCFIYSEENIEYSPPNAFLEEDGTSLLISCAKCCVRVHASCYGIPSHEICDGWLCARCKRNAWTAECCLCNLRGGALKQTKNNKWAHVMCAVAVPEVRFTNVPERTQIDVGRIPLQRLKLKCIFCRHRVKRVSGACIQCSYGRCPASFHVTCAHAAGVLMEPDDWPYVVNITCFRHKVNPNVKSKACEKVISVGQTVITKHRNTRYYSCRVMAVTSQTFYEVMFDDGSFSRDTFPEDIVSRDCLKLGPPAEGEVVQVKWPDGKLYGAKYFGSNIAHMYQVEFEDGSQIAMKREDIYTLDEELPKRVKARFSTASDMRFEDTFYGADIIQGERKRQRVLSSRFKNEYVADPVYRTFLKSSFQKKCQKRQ

Fatty acid synthase [12] = molecular target: T6, Fatty acid synthase; test: FAS thioesterase domain inhibitors, dose response, biochemical, endpoint fluorescence intensity, uHTS hits (AID 624327); type: functional;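 also: fluorescence from hydrolysis of an O-methyl fluorescein acyl ester substrate by the enzyme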
Cytochrome P450 2C9 = Cytochrome P450 2C9 (Homo sapiens, UniProt P11712)
Cytochrome P450 1A2 = molecular target: T8, Cytochrome P450 1A2 (Homo sapiens, UniProt P05177);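 also: PubChem cytochrome P450 panel assay, CYP1A2 panel member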
T8 sequence (P05177 whole entry): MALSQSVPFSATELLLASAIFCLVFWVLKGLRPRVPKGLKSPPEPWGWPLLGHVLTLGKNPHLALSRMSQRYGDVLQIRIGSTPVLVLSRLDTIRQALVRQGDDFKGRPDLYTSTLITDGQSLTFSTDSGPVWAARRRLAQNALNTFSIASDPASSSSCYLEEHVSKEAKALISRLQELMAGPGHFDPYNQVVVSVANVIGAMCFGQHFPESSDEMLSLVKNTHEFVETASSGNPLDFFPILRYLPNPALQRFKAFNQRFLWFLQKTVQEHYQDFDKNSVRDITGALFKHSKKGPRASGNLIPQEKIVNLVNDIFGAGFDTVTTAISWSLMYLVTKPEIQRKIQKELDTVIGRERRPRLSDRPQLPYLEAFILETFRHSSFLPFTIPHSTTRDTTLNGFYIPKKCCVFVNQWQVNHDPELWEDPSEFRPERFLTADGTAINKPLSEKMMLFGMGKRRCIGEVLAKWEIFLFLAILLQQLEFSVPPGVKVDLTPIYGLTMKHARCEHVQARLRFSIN

T4 sequence (Q00975 whole entry): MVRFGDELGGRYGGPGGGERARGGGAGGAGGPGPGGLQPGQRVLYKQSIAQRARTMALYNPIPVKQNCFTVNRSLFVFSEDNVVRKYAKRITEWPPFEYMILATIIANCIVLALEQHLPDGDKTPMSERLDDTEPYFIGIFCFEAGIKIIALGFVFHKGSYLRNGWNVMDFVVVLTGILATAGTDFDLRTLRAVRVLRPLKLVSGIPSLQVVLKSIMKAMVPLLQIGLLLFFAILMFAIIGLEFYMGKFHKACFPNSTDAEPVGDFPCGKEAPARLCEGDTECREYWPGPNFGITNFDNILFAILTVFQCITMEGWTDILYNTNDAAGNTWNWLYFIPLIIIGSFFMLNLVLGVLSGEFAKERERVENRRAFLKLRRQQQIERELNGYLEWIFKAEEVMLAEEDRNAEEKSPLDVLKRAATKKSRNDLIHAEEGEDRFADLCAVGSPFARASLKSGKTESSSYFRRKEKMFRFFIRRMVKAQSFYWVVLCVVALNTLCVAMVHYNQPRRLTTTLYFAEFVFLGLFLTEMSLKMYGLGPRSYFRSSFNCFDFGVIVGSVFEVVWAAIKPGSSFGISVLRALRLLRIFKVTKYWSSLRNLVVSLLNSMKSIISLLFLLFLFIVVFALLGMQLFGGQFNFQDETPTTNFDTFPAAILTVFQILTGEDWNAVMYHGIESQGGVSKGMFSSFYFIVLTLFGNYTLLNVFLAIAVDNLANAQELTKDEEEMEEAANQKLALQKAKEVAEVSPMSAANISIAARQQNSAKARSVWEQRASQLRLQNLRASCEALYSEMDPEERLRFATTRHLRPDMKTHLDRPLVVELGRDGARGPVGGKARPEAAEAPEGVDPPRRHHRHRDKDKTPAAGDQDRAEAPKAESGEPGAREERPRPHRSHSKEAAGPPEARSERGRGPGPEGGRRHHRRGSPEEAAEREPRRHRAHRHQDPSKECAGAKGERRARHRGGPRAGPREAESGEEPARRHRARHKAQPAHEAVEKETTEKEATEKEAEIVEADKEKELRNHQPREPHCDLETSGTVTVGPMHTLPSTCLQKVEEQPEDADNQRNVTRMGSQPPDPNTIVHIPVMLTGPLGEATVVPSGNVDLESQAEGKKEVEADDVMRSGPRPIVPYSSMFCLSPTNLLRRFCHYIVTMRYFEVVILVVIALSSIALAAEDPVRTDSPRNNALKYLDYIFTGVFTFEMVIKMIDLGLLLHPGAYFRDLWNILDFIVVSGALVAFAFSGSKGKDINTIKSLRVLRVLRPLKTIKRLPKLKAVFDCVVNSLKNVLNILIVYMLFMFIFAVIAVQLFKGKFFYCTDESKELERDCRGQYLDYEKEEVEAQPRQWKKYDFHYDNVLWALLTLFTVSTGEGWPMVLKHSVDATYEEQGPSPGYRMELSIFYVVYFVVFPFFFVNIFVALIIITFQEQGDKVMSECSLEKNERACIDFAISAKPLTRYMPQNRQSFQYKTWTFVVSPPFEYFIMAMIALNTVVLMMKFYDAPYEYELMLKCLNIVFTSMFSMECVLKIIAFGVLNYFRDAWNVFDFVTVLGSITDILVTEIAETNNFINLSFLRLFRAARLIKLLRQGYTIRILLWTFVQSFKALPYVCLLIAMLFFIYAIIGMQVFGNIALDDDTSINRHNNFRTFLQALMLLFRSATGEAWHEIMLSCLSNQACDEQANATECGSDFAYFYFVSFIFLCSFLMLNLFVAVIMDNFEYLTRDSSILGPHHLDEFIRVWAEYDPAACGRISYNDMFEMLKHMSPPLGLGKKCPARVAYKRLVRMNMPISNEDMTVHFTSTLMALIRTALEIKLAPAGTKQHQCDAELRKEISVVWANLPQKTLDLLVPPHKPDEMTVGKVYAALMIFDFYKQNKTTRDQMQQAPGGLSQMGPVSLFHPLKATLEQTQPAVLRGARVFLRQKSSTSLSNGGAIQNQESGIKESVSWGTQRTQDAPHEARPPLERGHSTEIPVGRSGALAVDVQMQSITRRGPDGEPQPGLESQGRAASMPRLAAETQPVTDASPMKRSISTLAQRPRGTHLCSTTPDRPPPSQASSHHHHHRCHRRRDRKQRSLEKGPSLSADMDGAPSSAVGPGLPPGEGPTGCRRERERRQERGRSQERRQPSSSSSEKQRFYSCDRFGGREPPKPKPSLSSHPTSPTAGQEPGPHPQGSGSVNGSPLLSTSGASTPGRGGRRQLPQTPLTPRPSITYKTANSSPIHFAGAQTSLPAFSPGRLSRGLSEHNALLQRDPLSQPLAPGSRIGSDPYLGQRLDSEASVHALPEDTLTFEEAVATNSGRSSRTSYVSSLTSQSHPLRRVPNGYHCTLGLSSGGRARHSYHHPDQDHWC
T4 sequence (Q02410 whole entry): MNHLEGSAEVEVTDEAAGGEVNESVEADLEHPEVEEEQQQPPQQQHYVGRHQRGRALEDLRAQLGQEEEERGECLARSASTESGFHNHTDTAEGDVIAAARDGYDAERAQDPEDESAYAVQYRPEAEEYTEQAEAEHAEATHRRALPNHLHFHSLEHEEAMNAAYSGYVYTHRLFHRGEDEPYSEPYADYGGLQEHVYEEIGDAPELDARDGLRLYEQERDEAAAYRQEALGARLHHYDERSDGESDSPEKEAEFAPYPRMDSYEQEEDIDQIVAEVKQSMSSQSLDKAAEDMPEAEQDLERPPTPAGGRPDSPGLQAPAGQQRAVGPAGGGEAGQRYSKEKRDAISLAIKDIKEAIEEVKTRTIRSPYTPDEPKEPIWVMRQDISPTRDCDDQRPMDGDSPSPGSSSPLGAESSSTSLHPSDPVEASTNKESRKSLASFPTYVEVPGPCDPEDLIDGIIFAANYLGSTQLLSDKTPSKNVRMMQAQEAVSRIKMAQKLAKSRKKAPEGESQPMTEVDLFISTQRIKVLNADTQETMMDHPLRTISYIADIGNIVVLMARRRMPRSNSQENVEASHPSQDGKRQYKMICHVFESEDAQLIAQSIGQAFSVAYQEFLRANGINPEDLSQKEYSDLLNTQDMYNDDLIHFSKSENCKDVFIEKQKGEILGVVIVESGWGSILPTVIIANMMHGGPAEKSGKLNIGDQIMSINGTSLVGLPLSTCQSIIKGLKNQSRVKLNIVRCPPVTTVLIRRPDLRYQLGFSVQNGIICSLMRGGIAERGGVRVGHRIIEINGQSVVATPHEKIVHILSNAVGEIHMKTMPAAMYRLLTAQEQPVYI
T3 sequence (P51452 whole entry): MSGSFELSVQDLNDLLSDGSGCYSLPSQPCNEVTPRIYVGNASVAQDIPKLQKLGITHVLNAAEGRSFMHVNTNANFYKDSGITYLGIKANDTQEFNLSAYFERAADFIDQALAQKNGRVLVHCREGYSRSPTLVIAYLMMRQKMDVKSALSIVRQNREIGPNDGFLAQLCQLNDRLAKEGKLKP
Chain of Cytochrome P450 2C9 (P11712 whole entry): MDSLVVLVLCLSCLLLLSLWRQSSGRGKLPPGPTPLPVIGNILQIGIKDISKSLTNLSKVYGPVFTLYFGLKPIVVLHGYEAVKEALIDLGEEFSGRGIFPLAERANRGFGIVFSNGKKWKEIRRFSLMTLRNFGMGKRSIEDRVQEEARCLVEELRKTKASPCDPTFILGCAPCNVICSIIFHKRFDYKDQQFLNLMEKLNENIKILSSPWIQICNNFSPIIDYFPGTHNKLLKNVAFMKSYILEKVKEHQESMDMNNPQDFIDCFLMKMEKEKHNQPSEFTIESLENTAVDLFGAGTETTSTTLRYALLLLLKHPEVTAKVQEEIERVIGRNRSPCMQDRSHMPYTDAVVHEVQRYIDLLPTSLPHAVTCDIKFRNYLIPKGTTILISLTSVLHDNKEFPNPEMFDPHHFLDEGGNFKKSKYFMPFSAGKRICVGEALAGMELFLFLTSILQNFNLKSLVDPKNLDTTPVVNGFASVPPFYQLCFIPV
Chain of Large T antigen (P03070 whole entry): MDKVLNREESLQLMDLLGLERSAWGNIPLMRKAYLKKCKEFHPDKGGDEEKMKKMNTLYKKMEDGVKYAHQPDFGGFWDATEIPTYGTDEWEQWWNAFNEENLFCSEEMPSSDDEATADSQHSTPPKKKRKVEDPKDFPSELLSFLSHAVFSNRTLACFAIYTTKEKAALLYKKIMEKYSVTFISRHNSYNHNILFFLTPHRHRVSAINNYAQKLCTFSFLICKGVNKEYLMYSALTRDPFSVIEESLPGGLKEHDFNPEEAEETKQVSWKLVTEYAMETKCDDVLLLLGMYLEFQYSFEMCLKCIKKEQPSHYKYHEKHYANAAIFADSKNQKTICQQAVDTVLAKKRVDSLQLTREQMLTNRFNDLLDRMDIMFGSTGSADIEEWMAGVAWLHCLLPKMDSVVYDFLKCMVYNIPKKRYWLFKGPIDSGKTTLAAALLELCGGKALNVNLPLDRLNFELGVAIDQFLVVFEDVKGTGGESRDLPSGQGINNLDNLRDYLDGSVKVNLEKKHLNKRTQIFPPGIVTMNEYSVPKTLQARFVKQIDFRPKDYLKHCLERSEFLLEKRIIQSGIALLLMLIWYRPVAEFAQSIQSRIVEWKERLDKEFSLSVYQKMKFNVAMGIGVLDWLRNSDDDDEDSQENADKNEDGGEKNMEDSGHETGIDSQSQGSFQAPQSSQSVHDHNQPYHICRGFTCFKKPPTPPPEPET

O=C(O)/C=C/C(=O)c1ccc2c(c1)CCc1ccccc1-2
CC50 (Vero): 17.2 µM (active)
AC50 [1]: 16.6 µM (active)
AC50 [2]: 15 µM (active)
AC50 (A-375): 35 µM (active)
IC50 (Genome polyprotein): 22.9 µM (active)
IC50 (Large T antigen): 34.5 µM (active)

CCOC(=O)N1C(=O)C2(CCCCC2)N(c2ccc(C)cc2)C1=S
EC50 [3]: > 285 µM (inactive)

CCOC(=O)C1=C(C)N=c2s/c(=C/c3ccc(OCC(=O)O)cc3)c(=O)n2C1c1ccc(SC)cc1 (stereo not drawn)
IC50 [4]: 9.18 µM (active)
IC50 [5]: > 50 µM (inactive)
IC50 [6]: 6.94 µM (active)
IC50 [7]: 72.6 µM (active)
IC50 [8]: 10.4 µM (active)

O=C(N/N=C/c1cc([N+](=O)[O-])cc([N+](=O)[O-])c1O)C(O)(c1ccccc1)c1ccccc1
AC50 [9]: 3.47 µM (active)
IC50 (Fatty acid synthase [10]): 8.77 µM (active)
AC50 [11]: 2 µM (active)
IC50 (Fatty acid synthase [12]): 16.1 µM (active)

C=C[C@H]1C[N@@]2CC[C@H]1C[C@@H]2[C@@H](O)c1ccnc2ccc(OC)cc12 [QUINIDINE]
AC50 (Cytochrome P450 2C9): inactive
AC50 (Cytochrome P450 1A2): inactive
